{
  "source": "patent US20210038579A1",
  "about": "“Treatment Of Patients With Classic Fabry Disease” (Amicus Therapeutics, Inc., priority 2018, published 2021)",
  "assay_in_all_cases": "HEK assay: α-Gal A activity in HEK-293 cell lysate with migalastat",
  "type_in_all_cases": "cell-based",
  "key": {"[1]": {"target": "T1, α-Gal A mutant form p.Gly258Arg (c.772 G > C) (Homo sapiens, UniProt P06280, G258R)", "T1 construct": "expressed in transfected cells; host or cells: HEK-293", "T1 sequence (P06280 32-429 G258R)": "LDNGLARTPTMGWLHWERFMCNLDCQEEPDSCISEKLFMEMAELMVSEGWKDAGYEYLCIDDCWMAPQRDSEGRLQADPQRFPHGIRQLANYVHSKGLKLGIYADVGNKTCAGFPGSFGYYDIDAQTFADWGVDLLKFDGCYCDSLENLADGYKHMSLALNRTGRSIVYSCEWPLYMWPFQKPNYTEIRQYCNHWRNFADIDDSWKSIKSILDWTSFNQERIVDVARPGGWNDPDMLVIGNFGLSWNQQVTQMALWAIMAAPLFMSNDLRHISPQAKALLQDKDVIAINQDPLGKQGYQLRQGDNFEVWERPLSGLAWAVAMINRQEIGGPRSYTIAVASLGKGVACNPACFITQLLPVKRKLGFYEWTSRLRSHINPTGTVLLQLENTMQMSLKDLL", "protocol": "(§1) Such mutations are also referred to herein as “HEK assay amenable” mutations.\n(§2) In this assay, cDNA constructs are created. The corresponding α-Gal A mutant forms are transiently expressed in HEK-293 cells. Cells are then incubated±migalastat (17 nM to 1 mM) for 4 to 5 days. After, α-Gal A levels are measured in cell lysates using a synthetic fluorogenic substrate (4-MU-α-Gal) or by western blot. This has been done for known disease-causing missense or small in-frame insertion/deletion mutations."}, "[2]": {"target": "T2, α-Gal A mutant form p.Gly85Asp (c.254 G > A) (Homo sapiens, UniProt P06280, G85D)", "T2 construct": "expressed in transfected cells; host or cells: HEK-293", "T2 sequence (P06280 32-429 G85D)": "T1 sequence (P06280 32-429 G258R) with G54D, R227G", "protocol": "as §1, §2"}, "[3]": {"target": "T3, α-Gal A mutant form p.Gly183Asp (c.548 G > A) (Homo sapiens, UniProt P06280, G183D)", "T3 construct": "expressed in transfected cells; host or cells: HEK-293", "T3 sequence (P06280 32-429 G183D)": "T1 sequence (P06280 32-429 G258R) with G152D, R227G", "protocol": "as §1, §2"}, "[4]": {"target": "T4, α-Gal A mutant form p.Cys174Arg (c.520 T > C) (Homo sapiens, UniProt P06280, C174R)", "T4 construct": "expressed in transfected cells; host or cells: HEK-293", "T4 sequence (P06280 32-429 C174R)": "T1 sequence (P06280 32-429 G258R) with C143R, R227G", "protocol": "as §1, §2"}, "[5]": {"target": "T5, α-Gal A mutant form p.Gly271Ser; Asp313Tyr (c.811 G > A; c.937 G > T) (Homo sapiens, UniProt P06280, D313Y/G271S)", "T5 construct": "expressed in transfected cells; host or cells: HEK-293", "T5 sequence (P06280 32-429 G271S/D313Y)": "T1 sequence (P06280 32-429 G258R) with R227G, G240S, D282Y", "protocol": "as §1, §2"}, "[6]": {"settings": "+10 μM migalastat, HEK-293 cell lysate, mean ± SEM, n = 20"}, "[7]": {"settings": "HEK293, 10 μM migalastat minus baseline, read-out: Absolute increase at 10 μM (% WT)"}},
  "note": "Residue numbers refer to the chain shown, from its start. Values joined by “and” are separate entries in the source; they are usually repeats but may differ in a detail not shown here. Equal values may be shown once.",
  "data": [
    {"smiles": "OC[C@H]1NC[C@H](O)[C@@H](O)[C@H]1O", "note": "[migalastat]", "values": [
      {"measurement": "α-Gal A activity at 10 μM (fold over baseline)", "setting": "[1]; 10 μM migalastat", "result": 2.37, "unit": "fold over baseline"},
      {"measurement": "+Migalastat α-Gal A activity", "setting": "[1]; [6]", "result": "22630 ± 801", "unit": "nmol/mg/h"},
      {"measurement": "+Migalastat α-Gal A activity % WT", "setting": "[1]; [6]", "result": "78.1 ± 5.8", "unit": "% WT"},
      {"measurement": "activation at 10 µM", "setting": "[1]; [7]", "result": 45.5, "unit": "%"},
      {"measurement": "α-Gal A activity at 10 μM (fold over baseline)", "setting": "[2]; 10 μM migalastat", "result": 5.10, "unit": "fold over baseline"},
      {"measurement": "+Migalastat α-Gal A activity", "setting": "[2]; [6]", "result": "4534 ± 135", "unit": "nmol/mg/h"},
      {"measurement": "+Migalastat α-Gal A activity % WT", "setting": "[2]; [6]", "result": "14.3 ± 0.9", "unit": "% WT"},
      {"measurement": "activation at 10 µM", "setting": "[2]; [7]", "result": 11.6, "unit": "%"},
      {"measurement": "α-Gal A activity at 10 μM (fold over baseline)", "setting": "[3]; 10 μM migalastat", "result": 29.31, "unit": "fold over baseline"},
      {"measurement": "+Migalastat α-Gal A activity", "setting": "[3]; [6]", "result": "6074 ± 212", "unit": "nmol/mg/h"},
      {"measurement": "+Migalastat α-Gal A activity % WT", "setting": "[3]; [6]", "result": "19.1 ± 1.0 % WT and 19.1 ± 10 % WT"},
      {"measurement": "activation at 10 µM", "setting": "[3]; [7]", "result": 18.4, "unit": "%"},
      {"measurement": "α-Gal A activity at 10 μM (fold over baseline)", "setting": "[4]; 10 μM migalastat", "result": 3.53, "unit": "fold over baseline"},
      {"measurement": "+Migalastat α-Gal A activity", "setting": "[4]; [6]", "result": "16505 ± 393", "unit": "nmol/mg/h"},
      {"measurement": "+Migalastat α-Gal A activity % WT", "setting": "[4]; [6]", "result": "51.6 ± 2.0", "unit": "% WT"},
      {"measurement": "activation at 10 µM", "setting": "[4]; [7]", "result": 37.4, "unit": "%"},
      {"measurement": "Absolute increase at 10 μM (% WT)", "setting": "[5]; 10 μM migalastat minus baseline", "result": 3.0, "unit": "% WT"},
      {"measurement": "+Migalastat α-Gal A activity", "setting": "[5]; [6]", "result": "877 ± 18", "unit": "nmol/mg/h"},
      {"measurement": "+Migalastat α-Gal A activity % WT", "setting": "[5]; [6]", "result": "3.0 ± 0.2", "unit": "% WT"}
    ]}
  ]
}
